Where “and” joins values, the source holds several entries; their conditions need not be identical. Equal values may be shown once. Inconclusive results and toxic doses are left out. The calls were made as follows: active = survival T/C of 150% or more; inactive = T/C below 125% in these data. Non-standard residues stand in square brackets, D forms with d. Residues, ends and D or L forms follow the SMILES beside them. ξ: configuration not given here. ξI = CCC(C)C(N)C(=O)O
Test system: CD2F1 mice, L1210 leukemia ip, survival T/C
Assay: NCI In Vivo Anticancer Drug Screen. Data for tumor model L1210 Leukemia (intraperitoneal) in CD2F1 (CDF1) mice
Conditions: endpoint: mean survival time, higher = longer survival
Procedure, shortened: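 Implant tumor; dose compound or vehicle; measure endpoint in both groups; report treated divided by control.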

[1] = dose: 100.0 mg/kg/injection, schedule: Q01DX009 (ip), vehicle: saline with Tween-80
[2] = dose: 200.0 mg/kg/injection, schedule: Q01DX009 (ip), vehicle: saline with Tween-80
[3] = dose: 100.0 mg/kg/injection, schedule: Q04DX003 (ip), vehicle: saline with Tween-80
[4] = dose: 200.0 mg/kg/injection, schedule: Q04DX003 (ip), vehicle: saline with Tween-80
[5] = dose: 400.0 mg/kg/injection, schedule: Q04DX003 (ip), vehicle: saline with Tween-80

Measured: T/C

ClC1=NC(Cl)(Cl)C(Cl)=C1Cl
inactive: dose: 6.25 mg/kg/injection, schedule: Q04DX002 (ip), vehicle: saline 95 % of control | dose: 12.5 mg/kg/injection, schedule: Q04DX002 (ip), vehicle: saline 95 % of control | dose: 25.0 mg/kg/injection, schedule: Q04DX002 (ip), vehicle: saline 98 % of control

Nc1csc(N)n1
inactive: dose: 37.5 mg/kg/injection, schedule: Q01DX009 (ip), vehicle: saline 98 % of control | dose: 75.0 mg/kg/injection, schedule: Q01DX009 (ip), vehicle: saline 98 % of control | dose: 150.0 mg/kg/injection, schedule: Q01DX009 (ip), vehicle: saline 98 % of control

CC(=O)S[C@@H]1CC2=CC(=O)CC[C@]2(C)[C@H]2CC[C@@]3(C)[C@@H](CC[C@@]34CCC(=O)O4)[C@H]12
inactive: dose: 100.0 mg/kg/injection, schedule: Q04DX003 (sc), vehicle: steriod suspending solution 95 % of control | dose: 200.0 mg/kg/injection, schedule: Q04DX003 (sc), vehicle: steriod suspending solution 97 % of control | dose: 400.0 mg/kg/injection, schedule: Q04DX003 (sc), vehicle: steriod suspending solution 98 % of control

CCOC(CC)c1ccccc1 (stereo unspecified)
inactive: dose: 50.0 mg/kg/injection, schedule: Q01DX009 (ip), vehicle: saline with Tween-80 103 % of control | [1] 103 % of control | [2] 106 % of control

Cc1cc(OC(=O)Nc2cccc(Cl)c2Cl)ccc1Cl
inactive: dose: 100.0 mg/kg/injection, schedule: Q01DX009 (ip), vehicle: other 101 % of control | dose: 200.0 mg/kg/injection, schedule: Q01DX009 (ip), vehicle: other 103 % of control | dose: 400.0 mg/kg/injection, schedule: Q01DX009 (ip), vehicle: other 106 % of control

[Cl][Pt+2][Cl].[NH-]c1ccc([N+](=O)[O-])cc1[NH-]
inactive: dose: 2.5 mg/kg/injection, schedule: Q01DX009 (ip), vehicle: saline with Tween-80 103 % of control | dose: 5.0 mg/kg/injection, schedule: Q01DX009 (ip), vehicle: saline with Tween-80 102 % of control | dose: 10.0 mg/kg/injection, schedule: Q01DX009 (ip), vehicle: saline with Tween-80 103 % of control | dose: 20.0 mg/kg/injection, schedule: Q01DX009 (ip), vehicle: saline with Tween-80 105 % of control and 107 % of control | dose: 40.0 mg/kg/injection, schedule: Q01DX009 (ip), vehicle: saline with Tween-80 106 % of control and 111 % of control | dose: 80.0 mg/kg/injection, schedule: Q01DX009 (ip), vehicle: saline with Tween-80 96 % of control

O=c1[nH]c(=O)n(C2CC(O)C(CO)O2)cc1/C=N/O (stereo unspecified)
inactive: dose: 12.5 mg/kg/injection, schedule: Q01DX005 (ip), vehicle: distilled water + Tween-80 101 % of control | dose: 25.0 mg/kg/injection, schedule: Q01DX005 (ip), vehicle: distilled water + Tween-80 103 % of control | dose: 50.0 mg/kg/injection, schedule: Q01DX005 (ip), vehicle: distilled water + Tween-80 101 % of control | dose: 100.0 mg/kg/injection, schedule: Q01DX005 (ip), vehicle: distilled water + Tween-80 98 % of control | dose: 200.0 mg/kg/injection, schedule: Q01DX005 (ip), vehicle: distilled water + Tween-80 101 % of control

Cc1ccc(S(=O)(=O)OCC(OS(=O)(=O)c2ccc(C)cc2)C2OC3OC(C)(C)OC3C2OS(=O)(=O)c2ccc(C)cc2)cc1 (stereo unspecified)
inactive: [1] 103 % of control | [3] 96 % of control | [2] 103 % of control | [4] 87 % of control | dose: 400.0 mg/kg/injection, schedule: Q01DX009 (ip), vehicle: saline with Tween-80 89 % of control | [5] 90 % of control

CCC(C)C(NC(=O)CN)C(=O)O (stereo unspecified) (H-Gly-[ξI]-OH)
inactive: dose: 100.0 mg/kg/injection, schedule: Q04DX002 (ip), vehicle: saline with Tween-80 100 % of control | dose: 100.0 mg/kg/injection, schedule: Q04DX002 (ip), vehicle: saline 94 % of control | dose: 200.0 mg/kg/injection, schedule: Q04DX002 (ip), vehicle: saline with Tween-80 103 % of control | dose: 200.0 mg/kg/injection, schedule: Q04DX002 (ip), vehicle: saline 90 % of control | dose: 400.0 mg/kg/injection, schedule: Q04DX002 (ip), vehicle: saline with Tween-80 95 % of control | dose: 400.0 mg/kg/injection, schedule: Q04DX002 (ip), vehicle: saline 101 % of control

Cc1c(O)c(N=NC(N)=S)c2ccccc2c1O
inactive: [3] 100 % of control | [4] 102 % of control | [5] 100 % of control

Source: PubChem BioAssay AID256 (DTP/NCI, 2004)
